Test results taken from ChEMBL document CHEMBL5678818, “Discovery of potent SOS1 inhibitors that block RAS activation via disruption of the RAS-SOS1 interaction” (Proc Natl Acad Sci U S A, 2019).

Assays:
[1] = biological target: Calcium/calmodulin-dependent protein kinase type II subunit gamma (Homo sapiens) (UniProt Q13555); test: Inhibition of CAMK2G (unknown origin) assessed as residual activity at 100 nM by KINOMEscan analysis relative to control
[2] = test system: Receptor-type tyrosine-protein kinase FLT3 (Homo sapiens), P36888 [UNDEFINED MUTATION]; test: Inhibition of FLT3 ITD mutant (unknown origin) assessed as residual activity at 100 nM by KINOMEscan analysis relative to control
[3] = test system: Receptor-type tyrosine-protein kinase FLT3 (Homo sapiens), P36888 [R834Q]; test: Inhibition of FLT3 R834Q mutant (unknown origin) assessed as residual activity at 100 nM by KINOMEscan analysis relative to control
[4] = biological target: Receptor-type tyrosine-protein kinase FLT3 (Homo sapiens) (UniProt P36888); test: Inhibition of autoinhibited FLT3 (unknown origin) assessed as residual activity at 100 nM by KINOMEscan analysis relative to control
[5] = test system: Mast/stem cell growth factor receptor Kit (Homo sapiens), P10721 [A829P]; test: Inhibition of KIT A829P mutant (unknown origin) assessed as residual activity at 100 nM by KINOMEscan analysis relative to control
[6] = biological target: Serine/threonine-protein kinase MARK1 (Homo sapiens) (UniProt Q9P0L2); test: Inhibition of MARK1 (unknown origin) assessed as residual activity at 100 nM by KINOMEscan analysis relative to control
[7] = biological target: Mitogen-activated protein kinase kinase kinase 10 (Homo sapiens) (UniProt Q02779); test: Inhibition of MLK2 (unknown origin) assessed as residual activity at 100 nM by KINOMEscan analysis relative to control
[8] = biological target: Serine/threonine-protein kinase Nek4 (Homo sapiens) (UniProt P51957); test: Inhibition of NEK4 (unknown origin) assessed as residual activity at 100 nM by KINOMEscan analysis relative to control
[9] = biological target: Serine/threonine-protein kinase NIM1 (Homo sapiens) (UniProt Q8IY84); test: Inhibition of NIM1 (unknown origin) assessed as residual activity at 100 nM by KINOMEscan analysis relative to control
[10] = test system: Phosphatidylinositol 4,5-bisphosphate 3-kinase catalytic subunit alpha isoform (Homo sapiens), P42336 [M1043I]; test: Inhibition of PIK3CA M1043I mutant (unknown origin) assessed as residual activity at 100 nM by KINOMEscan analysis relative to control
[11] = biological target: T1, cGMP-dependent protein kinase 2 (Homo sapiens) (UniProt Q13237); test: Inhibition of PRKG2 (unknown origin) assessed as residual activity at 100 nM by KINOMEscan analysis relative to control
T1 sequence (whole entry): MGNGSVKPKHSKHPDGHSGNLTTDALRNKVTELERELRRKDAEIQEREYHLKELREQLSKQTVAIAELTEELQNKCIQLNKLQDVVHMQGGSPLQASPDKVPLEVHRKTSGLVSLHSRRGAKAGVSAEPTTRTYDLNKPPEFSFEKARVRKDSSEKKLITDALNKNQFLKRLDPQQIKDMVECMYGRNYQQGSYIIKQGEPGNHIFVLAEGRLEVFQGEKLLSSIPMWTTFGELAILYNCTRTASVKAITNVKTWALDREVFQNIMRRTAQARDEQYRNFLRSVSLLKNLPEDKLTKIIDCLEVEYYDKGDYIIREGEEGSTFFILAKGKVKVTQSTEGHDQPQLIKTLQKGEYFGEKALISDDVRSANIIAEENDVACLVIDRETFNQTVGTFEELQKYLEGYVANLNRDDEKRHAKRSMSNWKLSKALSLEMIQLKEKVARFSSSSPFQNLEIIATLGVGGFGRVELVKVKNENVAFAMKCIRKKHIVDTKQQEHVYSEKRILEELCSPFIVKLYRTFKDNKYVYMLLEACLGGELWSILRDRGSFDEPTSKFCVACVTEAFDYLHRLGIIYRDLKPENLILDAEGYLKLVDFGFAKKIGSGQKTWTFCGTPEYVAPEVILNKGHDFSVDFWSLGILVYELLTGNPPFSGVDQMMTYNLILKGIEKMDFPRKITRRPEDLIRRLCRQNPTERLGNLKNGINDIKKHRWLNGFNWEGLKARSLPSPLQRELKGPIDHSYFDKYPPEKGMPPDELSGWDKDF

[12] = biological target: Ribosomal protein S6 kinase alpha-6 (Homo sapiens) (UniProt Q9UK32); test: Inhibition of C-terminal RSK4 kinetic domain 2 (unknown origin) assessed as residual activity at 100 nM by KINOMEscan analysis relative to control
[13] = biological target: T2, SNF-related serine/threonine-protein kinase (Homo sapiens) (UniProt Q9NRH2); test: Inhibition of SNRK (unknown origin) assessed as residual activity at 100 nM by KINOMEscan analysis relative to control
T2 sequence (whole entry): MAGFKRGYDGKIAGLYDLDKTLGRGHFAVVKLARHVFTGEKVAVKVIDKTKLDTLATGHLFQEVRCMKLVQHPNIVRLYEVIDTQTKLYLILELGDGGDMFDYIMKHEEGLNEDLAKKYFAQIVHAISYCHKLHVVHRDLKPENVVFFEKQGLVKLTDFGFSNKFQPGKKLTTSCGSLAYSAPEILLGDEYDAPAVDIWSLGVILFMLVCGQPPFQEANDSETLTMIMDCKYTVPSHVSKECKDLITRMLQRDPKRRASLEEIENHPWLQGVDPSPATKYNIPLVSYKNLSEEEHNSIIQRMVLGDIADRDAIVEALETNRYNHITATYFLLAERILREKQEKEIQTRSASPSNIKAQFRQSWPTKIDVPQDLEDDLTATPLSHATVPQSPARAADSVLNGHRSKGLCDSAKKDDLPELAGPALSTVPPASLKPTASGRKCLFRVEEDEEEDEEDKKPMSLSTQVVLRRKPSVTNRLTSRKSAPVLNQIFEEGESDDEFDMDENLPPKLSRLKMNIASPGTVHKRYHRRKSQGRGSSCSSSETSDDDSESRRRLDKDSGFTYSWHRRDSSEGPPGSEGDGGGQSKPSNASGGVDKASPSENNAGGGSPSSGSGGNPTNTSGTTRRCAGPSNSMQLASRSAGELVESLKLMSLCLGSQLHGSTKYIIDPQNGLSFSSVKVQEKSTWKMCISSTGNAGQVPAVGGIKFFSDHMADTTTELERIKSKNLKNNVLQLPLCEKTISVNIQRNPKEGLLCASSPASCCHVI

[14] = biological target: Serine/threonine-protein kinase WNK1 (Homo sapiens) (UniProt Q9H4A3); test: Inhibition of WNK1 (unknown origin) assessed as residual activity at 100 nM by KINOMEscan analysis relative to control
Chain of Serine/threonine-protein kinase WNK1 (Homo sapiens) (Q9H4A3 whole entry, looked up): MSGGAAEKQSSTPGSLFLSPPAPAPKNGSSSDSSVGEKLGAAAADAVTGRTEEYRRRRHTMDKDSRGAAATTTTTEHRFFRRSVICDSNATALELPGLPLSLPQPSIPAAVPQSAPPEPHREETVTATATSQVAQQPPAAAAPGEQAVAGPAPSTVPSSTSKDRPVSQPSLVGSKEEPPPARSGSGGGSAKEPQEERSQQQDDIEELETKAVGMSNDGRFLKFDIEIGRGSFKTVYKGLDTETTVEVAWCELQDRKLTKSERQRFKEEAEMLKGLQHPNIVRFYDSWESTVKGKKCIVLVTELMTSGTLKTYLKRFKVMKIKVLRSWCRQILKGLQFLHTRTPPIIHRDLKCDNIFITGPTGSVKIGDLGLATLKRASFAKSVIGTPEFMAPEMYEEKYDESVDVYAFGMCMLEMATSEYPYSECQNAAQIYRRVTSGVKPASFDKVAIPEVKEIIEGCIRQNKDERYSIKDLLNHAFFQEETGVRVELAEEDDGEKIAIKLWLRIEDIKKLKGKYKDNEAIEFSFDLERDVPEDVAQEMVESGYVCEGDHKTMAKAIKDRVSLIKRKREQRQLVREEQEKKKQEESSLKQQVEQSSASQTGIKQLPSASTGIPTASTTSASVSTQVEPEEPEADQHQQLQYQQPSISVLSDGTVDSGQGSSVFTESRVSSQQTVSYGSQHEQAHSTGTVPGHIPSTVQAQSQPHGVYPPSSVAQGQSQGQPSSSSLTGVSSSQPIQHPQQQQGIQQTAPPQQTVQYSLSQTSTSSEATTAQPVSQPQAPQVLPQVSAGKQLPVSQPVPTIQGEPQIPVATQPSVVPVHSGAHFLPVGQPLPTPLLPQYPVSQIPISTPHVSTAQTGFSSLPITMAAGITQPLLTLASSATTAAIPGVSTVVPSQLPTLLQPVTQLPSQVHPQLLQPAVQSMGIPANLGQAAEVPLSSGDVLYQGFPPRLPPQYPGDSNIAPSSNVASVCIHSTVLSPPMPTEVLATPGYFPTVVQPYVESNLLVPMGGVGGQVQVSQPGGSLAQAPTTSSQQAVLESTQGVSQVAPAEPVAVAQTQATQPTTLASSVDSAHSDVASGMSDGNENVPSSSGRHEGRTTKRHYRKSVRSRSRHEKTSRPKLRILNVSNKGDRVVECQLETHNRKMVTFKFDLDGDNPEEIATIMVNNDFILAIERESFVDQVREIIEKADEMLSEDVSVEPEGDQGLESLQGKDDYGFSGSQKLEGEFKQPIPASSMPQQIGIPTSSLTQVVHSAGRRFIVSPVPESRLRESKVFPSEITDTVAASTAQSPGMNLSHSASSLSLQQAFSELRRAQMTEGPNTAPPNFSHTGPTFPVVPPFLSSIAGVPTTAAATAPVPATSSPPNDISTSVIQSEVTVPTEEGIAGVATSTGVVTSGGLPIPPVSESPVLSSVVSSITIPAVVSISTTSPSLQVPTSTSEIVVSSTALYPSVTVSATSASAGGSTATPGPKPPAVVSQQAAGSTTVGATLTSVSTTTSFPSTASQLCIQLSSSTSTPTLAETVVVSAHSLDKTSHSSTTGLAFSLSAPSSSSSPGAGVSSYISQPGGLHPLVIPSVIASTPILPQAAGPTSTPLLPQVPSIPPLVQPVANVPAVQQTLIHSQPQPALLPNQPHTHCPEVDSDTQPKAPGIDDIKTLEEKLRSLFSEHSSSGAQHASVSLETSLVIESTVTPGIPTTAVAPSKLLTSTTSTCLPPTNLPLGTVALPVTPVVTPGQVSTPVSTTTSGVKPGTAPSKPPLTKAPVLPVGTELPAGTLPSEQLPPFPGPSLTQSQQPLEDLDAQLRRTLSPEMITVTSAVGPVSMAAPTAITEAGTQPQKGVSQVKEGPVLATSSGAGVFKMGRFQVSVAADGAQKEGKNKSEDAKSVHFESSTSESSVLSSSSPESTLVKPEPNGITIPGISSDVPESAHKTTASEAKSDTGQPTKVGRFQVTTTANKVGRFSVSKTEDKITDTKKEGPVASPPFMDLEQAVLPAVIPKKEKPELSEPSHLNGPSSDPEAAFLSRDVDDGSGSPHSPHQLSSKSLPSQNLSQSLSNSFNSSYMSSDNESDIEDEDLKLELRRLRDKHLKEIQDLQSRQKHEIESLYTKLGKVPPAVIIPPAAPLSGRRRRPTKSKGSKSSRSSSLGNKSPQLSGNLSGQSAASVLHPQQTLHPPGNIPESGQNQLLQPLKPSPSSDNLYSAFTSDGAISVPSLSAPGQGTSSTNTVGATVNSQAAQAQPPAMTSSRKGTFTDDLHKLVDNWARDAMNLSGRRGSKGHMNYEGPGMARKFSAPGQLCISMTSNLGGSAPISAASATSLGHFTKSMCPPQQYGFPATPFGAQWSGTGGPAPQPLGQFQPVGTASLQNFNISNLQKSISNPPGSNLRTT

Chain of Ribosomal protein S6 kinase alpha-6 (Homo sapiens) (Q9UK32 whole entry, the tested form may be a part): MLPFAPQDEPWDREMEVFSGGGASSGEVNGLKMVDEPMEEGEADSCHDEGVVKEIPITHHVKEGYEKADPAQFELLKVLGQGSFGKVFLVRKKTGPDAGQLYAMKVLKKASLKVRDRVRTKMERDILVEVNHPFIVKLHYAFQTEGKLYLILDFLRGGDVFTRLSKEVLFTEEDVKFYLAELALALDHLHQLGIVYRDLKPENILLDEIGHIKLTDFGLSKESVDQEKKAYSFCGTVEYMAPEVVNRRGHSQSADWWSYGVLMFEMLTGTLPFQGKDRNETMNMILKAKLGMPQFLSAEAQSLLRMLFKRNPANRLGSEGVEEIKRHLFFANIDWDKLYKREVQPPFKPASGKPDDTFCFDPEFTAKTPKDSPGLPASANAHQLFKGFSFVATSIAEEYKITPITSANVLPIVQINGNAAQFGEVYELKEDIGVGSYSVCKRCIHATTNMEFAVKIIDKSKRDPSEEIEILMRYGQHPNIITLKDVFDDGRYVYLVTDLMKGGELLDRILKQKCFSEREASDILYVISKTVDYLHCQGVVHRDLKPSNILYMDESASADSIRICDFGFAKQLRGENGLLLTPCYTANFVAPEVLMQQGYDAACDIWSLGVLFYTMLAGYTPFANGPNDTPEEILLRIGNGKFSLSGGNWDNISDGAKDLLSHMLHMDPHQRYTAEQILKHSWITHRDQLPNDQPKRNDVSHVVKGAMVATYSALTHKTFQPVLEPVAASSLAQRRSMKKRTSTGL
Chain of Serine/threonine-protein kinase Nek4 (Homo sapiens) (P51957 whole entry, looked up): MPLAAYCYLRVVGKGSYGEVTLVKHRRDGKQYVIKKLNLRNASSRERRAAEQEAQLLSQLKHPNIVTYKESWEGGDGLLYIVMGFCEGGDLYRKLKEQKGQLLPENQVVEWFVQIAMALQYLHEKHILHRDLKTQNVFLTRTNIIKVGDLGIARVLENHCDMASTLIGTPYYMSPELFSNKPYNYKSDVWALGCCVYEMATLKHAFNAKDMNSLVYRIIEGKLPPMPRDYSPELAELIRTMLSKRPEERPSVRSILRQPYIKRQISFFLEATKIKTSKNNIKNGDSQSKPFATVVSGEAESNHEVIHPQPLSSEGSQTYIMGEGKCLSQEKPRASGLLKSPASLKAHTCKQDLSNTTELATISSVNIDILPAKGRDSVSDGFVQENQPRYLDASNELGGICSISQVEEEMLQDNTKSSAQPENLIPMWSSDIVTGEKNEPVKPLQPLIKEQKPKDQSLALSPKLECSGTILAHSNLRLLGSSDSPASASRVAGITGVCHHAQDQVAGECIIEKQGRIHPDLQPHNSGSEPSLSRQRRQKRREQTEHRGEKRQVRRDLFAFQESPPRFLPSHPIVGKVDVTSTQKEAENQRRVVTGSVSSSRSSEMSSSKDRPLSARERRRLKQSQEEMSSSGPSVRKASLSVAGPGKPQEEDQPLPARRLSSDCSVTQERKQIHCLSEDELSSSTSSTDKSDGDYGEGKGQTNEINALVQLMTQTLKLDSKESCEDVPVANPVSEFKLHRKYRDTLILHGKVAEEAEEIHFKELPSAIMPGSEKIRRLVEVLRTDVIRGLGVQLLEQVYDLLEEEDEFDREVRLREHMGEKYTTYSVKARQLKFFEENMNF
Chain of Mitogen-activated protein kinase kinase kinase 10 (Homo sapiens) (Q02779 whole entry, looked up): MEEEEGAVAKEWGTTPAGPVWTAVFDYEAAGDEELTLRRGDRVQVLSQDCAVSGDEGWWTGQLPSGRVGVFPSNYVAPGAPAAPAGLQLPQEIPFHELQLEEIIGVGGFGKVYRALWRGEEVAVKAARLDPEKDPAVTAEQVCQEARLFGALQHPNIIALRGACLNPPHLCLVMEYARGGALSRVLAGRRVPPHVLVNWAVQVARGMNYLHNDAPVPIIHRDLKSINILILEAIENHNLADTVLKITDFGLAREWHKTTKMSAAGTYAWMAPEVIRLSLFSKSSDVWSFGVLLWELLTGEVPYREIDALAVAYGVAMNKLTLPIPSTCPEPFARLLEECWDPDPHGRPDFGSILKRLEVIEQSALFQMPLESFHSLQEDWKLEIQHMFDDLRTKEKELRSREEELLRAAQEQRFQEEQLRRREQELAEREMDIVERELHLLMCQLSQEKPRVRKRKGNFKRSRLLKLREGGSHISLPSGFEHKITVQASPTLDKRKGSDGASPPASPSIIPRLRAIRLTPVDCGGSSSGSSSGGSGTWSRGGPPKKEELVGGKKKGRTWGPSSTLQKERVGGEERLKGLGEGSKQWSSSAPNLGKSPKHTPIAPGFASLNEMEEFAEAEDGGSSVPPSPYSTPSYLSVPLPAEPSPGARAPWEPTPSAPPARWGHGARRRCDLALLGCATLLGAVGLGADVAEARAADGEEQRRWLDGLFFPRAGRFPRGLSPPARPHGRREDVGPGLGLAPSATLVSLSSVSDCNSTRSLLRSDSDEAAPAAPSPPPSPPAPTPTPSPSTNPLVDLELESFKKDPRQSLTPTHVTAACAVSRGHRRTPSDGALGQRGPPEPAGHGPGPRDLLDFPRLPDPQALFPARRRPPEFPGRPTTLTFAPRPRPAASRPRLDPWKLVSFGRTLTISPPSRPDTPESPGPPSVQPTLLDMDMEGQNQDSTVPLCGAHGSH

COc1cc2ncnc(N[C@H](C)c3cccc4ccccc34)c2cc1OC
Activity [1]: 60% | Activity [2]: 100% | Activity [3]: 93% | Activity [4]: 88% | Activity [5]: 96% | Activity [6]: 100% | Activity [7]: 100% | Activity [8]: 72% | Activity [9]: 78% | Activity [10]: 89% | Activity [11]: 70% | Activity [12]: 86% | Activity [13]: 74% | Activity [14]: 83%
